Patent US7767796B2, “N4 chelator conjugates” (GE Healthcare Limited, priority 2004, dated 2010)

Assays:
[1] = Measurement of lipophilicity (LogP): octanol-water partition coefficient of the 99mTc complexes; assay type: physicochemical; conditions: for Log P (octanol/50 mM phosphate buffer): 99mTc complex of the compound, 1-octanol / 50 mM phosphate buffer pH 7.4, room temperature; for Log P: 99mTc complex, repeated in the biodistribution table
Description: The tube was vortexed at room temperature for 1 min and then was centrifuged at high speed for 60 min. 0.1 ml samples of both phases were pipetted into other test tubes with adequate care to avoid cross contamination between the phases, and were counted in a Wallac Wizzard gamma-counter. The measurement was repeated three times.
The partition coefficient, P, was calculated as follows: P=(cpm in octanol−(cpm background)/( (cpm in water−(cpm background).
Usually the final partition coefficient value was expressed as log P.

[2] = Biodistribution of the 99mTc complexes in normal male Wistar rats; assay type: in vivo; conditions: 99mTc complex, rat; for Clearance (% ID) HBS 120 min / Blood 120 min / Heart 120 min / Liver 120 min / Lung 120 min / Muscle 120 min / Clearance (% ID) Urine (K, B, U) 120 min: 120 min p.i.; for Blood 5 min: 5 min p.i.; for Heart/blood / Heart/liver / Heart/lung / Heart/muscle: ratio of uptake, 120 min values
Description: The ^99mTc complexes of Compounds 4, 5 and 7 were prepared as described in Example 8. […] Animals were anaesthetised with Halothane (6% in oxygen), injected with 0.1 ml (500 MBq/ml) Test Item, sacrificed, dissected and the samples assayed for radioactivity.

Row | Compound | Log P (octanol/50 mM phosphate buffer) [1] | Log P [1] | Clearance (% ID) HBS 120 min [2] [% ID] | Blood 5 min [2] [% ID/G] | Blood 120 min [2] [% ID/G] | Heart 120 min [2] [% ID/G] | Liver 120 min [2] [% ID/G] | Lung 120 min [2] [% ID/G] | Muscle 120 min [2] [% ID/G] | Heart/blood [2] | Heart/liver [2] | Heart/lung [2] | Heart/muscle [2] | Clearance (% ID) Urine (K, B, U) 120 min [2] [% ID]
1 | NCCNCC(CNCCN)CC(=O)NCc1ccccc1 [Compound 3] | <−2 | – | – | – | – | – | – | – | – | – | – | – | – | –
2 | CCCCc1nc(Cl)c(CNC(=O)C(CC(C)C)NC(=O)CC(CNCCN)CNCCN)n1Cc1ccc(-c2ccccc2-c2nn[nH]n2)cc1 (centres unmarked) (99mTc complex, metal not drawn) [Compound 4] | +0.6 | 0.6 | 74.65 | 3.26 | 0.91 | 0.44 | 6.52 | 1.84 | 0.34 | 0.49 | 0.07 | 0.24 | 1.3 | 21.13
3 | CC[C@H](C)[C@H](NC(=O)[C@@H]1CCCN1C(=O)[C@H](Cc1cnc[nH]1)NC(=O)[C@@H](NC(=O)[C@H](Cc1ccc(O)cc1)NC(=O)[C@@H](NC(=O)[C@H](CCCNC(=N)N)NC(=O)NCCCCCCC(CNCCN)CNCCN)C(C)C)[C@@H](C)CC)C(=O)O (99mTc complex, metal not drawn) [Compound 7] | <−2 | <−2 | 19.63 | 0.84 | 0.05 | 0.1 | 1.55 | 0.4 | 0.1 | 2 | 0.06 | 0.25 | 1 | 64.26
4 | CCCCc1nc(Cl)c(CNC(=O)C(CC(C)C)NC(=O)COCC(=O)NCCOCCOCCOCCNC(=O)CC(CNCCN)CNCCN)n1Cc1ccc(-c2ccccc2-c2nn[nH]n2)cc1 (centres unmarked) (99mTc complex, metal not drawn) [Compound 5] | −0.1 | −0.1 | 54.21 | 1.5 | 0.26 | 0.13 | 3.53 | 0.6 | 0.9 | 0.5 | 0.04 | 0.21 | 1.44 | 14.45
5 | NCCNCC(CCCCCCNC(=O)c1ccccc1)CNCCN [Compound 6] | −1.8 | – | – | – | – | – | – | – | – | – | – | – | – | –
